The values that follow come from ChEMBL document CHEMBL6087443, “3-Halo-3-nitro-aza/thioflavanones: DNMT inhibitors with a two-site binding mode in the hDNMT3A catalytic pocket” (Bioorg Med Chem, 2025).

As a reminder, the inhibition is how much of the control response was suppressed. What is called half-life is how long it takes for the measured level to halve. A high value points to slow decline.

Active and inactive are the calls of the source. The calls are words filed in the database; no cut-off is given here.

The target in data set [1] is DNA (cytosine-5)-methyltransferase 3A (Homo sapiens) (UniProt Q9Y6K1). Put plainly: Inhibition of hDNMT3A-c using SAM and oligonucleotide with CpG site at 32 uM incubated for 2 hrs by fluorescence-based assay relative to control.
Sequence of DNA (cytosine-5)-methyltransferase 3A (Homo sapiens) (Q9Y6K1 whole entry, looked up): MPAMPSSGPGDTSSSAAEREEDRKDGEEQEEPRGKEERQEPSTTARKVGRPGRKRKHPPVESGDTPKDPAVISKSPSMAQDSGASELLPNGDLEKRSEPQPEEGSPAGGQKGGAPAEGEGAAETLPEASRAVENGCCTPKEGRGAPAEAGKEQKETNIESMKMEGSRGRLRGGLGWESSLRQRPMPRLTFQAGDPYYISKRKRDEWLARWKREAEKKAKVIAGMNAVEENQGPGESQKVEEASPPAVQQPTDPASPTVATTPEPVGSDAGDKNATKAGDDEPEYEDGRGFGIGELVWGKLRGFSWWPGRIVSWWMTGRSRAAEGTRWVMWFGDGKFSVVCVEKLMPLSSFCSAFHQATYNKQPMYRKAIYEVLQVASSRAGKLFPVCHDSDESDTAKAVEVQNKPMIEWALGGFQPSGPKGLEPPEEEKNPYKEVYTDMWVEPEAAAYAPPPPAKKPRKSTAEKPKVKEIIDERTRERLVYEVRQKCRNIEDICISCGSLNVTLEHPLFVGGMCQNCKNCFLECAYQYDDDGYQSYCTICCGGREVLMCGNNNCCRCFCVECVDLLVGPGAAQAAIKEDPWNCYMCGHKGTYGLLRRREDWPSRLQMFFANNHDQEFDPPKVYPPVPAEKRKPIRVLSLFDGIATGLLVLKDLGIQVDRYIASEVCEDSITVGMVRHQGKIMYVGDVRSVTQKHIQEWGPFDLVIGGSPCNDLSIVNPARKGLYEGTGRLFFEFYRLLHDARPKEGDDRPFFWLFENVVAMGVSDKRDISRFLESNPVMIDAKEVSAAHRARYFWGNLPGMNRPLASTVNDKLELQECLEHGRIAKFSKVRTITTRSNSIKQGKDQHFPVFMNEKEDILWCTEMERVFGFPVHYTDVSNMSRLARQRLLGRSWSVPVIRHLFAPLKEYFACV
The target is the same in data set [2]. Put plainly: Inhibition of hDNMT3A-c using SAM and oligonucleotide with CpG site at 10 uM incubated for 2 hrs by fluorescence-based assay relative to control.
Data set [3] is described as follows: Stability of compound in DNMT methylation buffer by HPLC analysis. The data set is classed as physicochemical.
Data set [4] can be described thus: Stability of the compound in HEPES buffer incubated for 2 hrs by measuring inhibition of DNMT (unknown origin) at 32 uM by HPLC analysis. The data set is classed as physicochemical.
Data set [5] can be described thus: Stability of the compound in HEPES buffer incubated for 2 hrs by measuring inhibition of DNMT (unknown origin) at 10 uM by HPLC analysis. The data set is classed as physicochemical.
Data set [6] can be described thus: Stability of the compound at pH 5.3. The note with it: buffer. The data set is classed as physicochemical.

As to `O=C1c2ccccc2S[C@@H](c2ccccc2)[C@]1(Br)[N+](=O)[O-]` (relative stereo), the inhibition in data set [1] worked out at 86%; in data set [2], 51%. The half-life in data set [3] is 72 min.
As to `COc1cccc(C2Nc3ccccc3C(=O)C2(Cl)[N+](=O)[O-])c1` (racemic), the inhibition in data set [1] stood at 56%; in data set [2], 42%. In data set [3], the half-life was 138 min.
Take `O=C1c2ccccc2S[C@@H](c2cccc(C(F)(F)F)c2)[C@@]1(Br)[N+](=O)[O-]` (relative stereo): the inhibition in data set [1] stood at 63%; in data set [2], 35%. Besides, in data set [3], the half-life is 12 min.
Regarding `COc1cccc(C2Nc3ccccc3C(=O)C2(Br)[N+](=O)[O-])c1` (racemic), the Stability result is “Unstable” in data set [4], “Unstable” in data set [5] and “Stable” in data set [6]. Also, the inhibition in data set [1] was determined as 100%; in data set [2], 59%. For the same molecule, in data set [3], the half-life was 42 min.
Consider `O=C1c2ccccc2NC(c2ccccc2)C1[N+](=O)[O-]` (stereo unspecified), for which the inhibition entry in data set [1] and in data set [2] was “inactive” each time.
In the case of `O=C1c2ccccc2S[C@@H](c2cccc(C(F)(F)F)c2)[C@]1(Br)[N+](=O)[O-]` (relative stereo), the figures for the inhibition in data set [1] and in data set [2] were 78% and 34%, respectively. The half-life in data set [3] is 192 min.
In the case of `O=C1c2ccccc2O[C@@H](c2ccccc2[N+](=O)[O-])[C@]1(Cl)[N+](=O)[O-]` (relative stereo), the inhibition in data set [1] worked out at 84%; in data set [2], 69%.
As to `O=C1c2ccccc2S[C@@H](c2ccccc2F)[C@@]1(Br)[N+](=O)[O-]` (relative stereo), the figures for the inhibition in data set [1] and in data set [2] were 67% and 42%, respectively. In data set [3], this molecule had a half-life of 66 min.
For `O=C1c2ccccc2O[C@@H](c2ccccc2)[C@]1(Br)[N+](=O)[O-]` (relative stereo), the inhibition in data set [1] was 92%; in data set [2], 69%.
On to `O=C1c2ccccc2S[C@H](c2cccc([N+](=O)[O-])c2)[C@@]1(Br)[N+](=O)[O-]` (relative stereo), for which the inhibition in data set [1] turned out to be 59%; in data set [2], 27%. In data set [3], this molecule showed a half-life of 54 min.
As to `O=C1c2ccccc2S[C@@H](c2ccccc2F)[C@]1(Br)[N+](=O)[O-]` (relative stereo), the inhibition came to 67% in data set [1] and 32% in data set [2]. Also, in data set [3], the half-life is 48 min.
For the molecule `O=C1c2ccccc2S[C@@H](c2ccccc2)[C@@]1(Br)[N+](=O)[O-]` (relative stereo), the inhibition in data set [1] came out at 68%; in data set [2] it was 42%. In addition, the half-life in data set [3] is 12 min.
`COc1cccc(C2Nc3ccccc3C(=O)C2[N+](=O)[O-])c1` (stereo unspecified): the inhibition result in data set [1] and in data set [2] was “inactive” in each case.
For the molecule `O=C1c2ccccc2NC(c2ccccc2)C1(Br)[N+](=O)[O-]` (racemic), the results for the inhibition in data set [1] and in data set [2] were 89% and 55%, respectively. Also, the half-life in data set [3] was 18 min.
